From PubChem BioAssay (NCI) come the findings set out here.

Values joined by “and” are separate entries in the source; they are usually repeats but may differ in a detail not shown here. Equal values may be shown once.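 Step 1: Grow cells in 96-well plates. Step 2: Expose to compound for 48 hours at 5 concentrations. Step 3: Interpolate endpoints linearly; if unreached, use highest concentration. Here, GI50 denotes the concentration required for 50% inhibition of growth. TGI: concentration producing complete growth inhibition.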 A value given as a limit tells only on which side of the number the result lay.

Some test systems named below: HT29 colon; SF-268 CNS; NCI-H23 lung; IGROV1 ovarian; CCRF-CEM leukemia; NCI-H460 lung; RPMI-8226 leukemia; UO-31 renal; SF-539 CNS; SNB-19 CNS.
What all share (experiment): inhibition of tumour cell growth, NCI panel, 48 h

Turning to `CC(=O)[CH-]C(=O)c1ccccc1.CC(=O)[CH-]C(=O)c1ccccc1.CC(=O)[CH-]C(=O)c1ccccc1.[Cl-].[Hf+4]`, the GI50 was 19.1 µM in the experiment with HT29 colon; 23.7 µM with SF-268 CNS; 39.1 µM in the experiment on NCI-H23 lung; 47 µM in the experiment with IGROV1 ovarian; 9.36 µM in the experiment with CCRF-CEM leukemia; 38.5 µM with NCI-H460 lung. Further, in the experiment with RPMI-8226 leukemia, the GI50 was 34.2 µM. Besides, the TGI in the experiment on HT29 colon, in the experiment with SF-268 CNS, in the experiment with NCI-H23 lung, in the experiment with IGROV1 ovarian, in the experiment with CCRF-CEM leukemia and in the experiment with NCI-H460 lung was above 100 µM throughout. The TGI with RPMI-8226 leukemia is above 100 µM.

Turning to `C=C1C2CCCC1C1(S(C)(=O)=O)CCCCC21O` (stereo not given), the TGI in the experiment on UO-31 renal, with HT29 colon, in the experiment with NCI-H23 lung, with SF-539 CNS, in the experiment on IGROV1 ovarian and in the experiment on NCI-H460 lung was above 100 µM in each case. Further, the TGI in the experiment on SNB-19 CNS and in the experiment on RPMI-8226 leukemia was above 100 µM in each case.

Turning to `O=C1NC(c2cccc3ccccc23)Nc2ccc(Cl)cc21` (stereo not given), the TGI in the experiment on UO-31 renal is 0.00836 µM; with HT29 colon, 0.105 µM; in the experiment with SF-268 CNS it was 23.3 µM; with NCI-H23 lung, 14.9 µM; in the experiment with IGROV1 ovarian it was 32.9 µM; in the experiment on CCRF-CEM leukemia, 0.0512 µM. Further, the TGI in the experiment on NCI-H460 lung is 0.279 µM; with SNB-19 CNS it was above 100 µM. Moreover, the GI50 in the experiment on NCI-H23 lung was 0.011 µM.

Regarding `Cc1cc(C)c([O-])c(-[n+]2c(-c3ccccc3)cc(-c3ccccc3)cc2-c2ccccc2)c1`, the TGI is 33.7 µM in the experiment with UO-31 renal; 12.2 µM in the experiment with HT29 colon; 21.5 µM in the experiment with SF-268 CNS; 13.7 µM with NCI-H23 lung; 26.9 µM in the experiment on SF-539 CNS; 19.9 µM in the experiment on IGROV1 ovarian. Further, the TGI was 10.1 µM in the experiment on CCRF-CEM leukemia, 15.8 µM in the experiment on NCI-H460 lung and 21 µM with SNB-19 CNS.

`N#CC(Cl)CS(=O)(=O)c1ccccc1` (stereo not given): the TGI worked out at 33.5 µM with UO-31 renal; 53.1 µM in the experiment with HT29 colon; 24.3 µM with SF-268 CNS; 33.5 µM in the experiment with NCI-H23 lung; 28.5 µM in the experiment with SF-539 CNS; 38 µM in the experiment on IGROV1 ovarian. Also, the results for the TGI with NCI-H460 lung, with SNB-19 CNS and in the experiment on RPMI-8226 leukemia were 38.8 µM, 35.1 µM and 14.1 µM, respectively.

Take `COc1ccc(C(=O)C(c2ccc(OC)cc2)C2(O)C(=O)Nc3c(Cl)cc(Cl)cc32)cc1` (stereo not given): the TGI is 62.2 µM with UO-31 renal; 42.4 µM with HT29 colon; above 100 µM in the experiment with SF-268 CNS; 38.5 µM with NCI-H23 lung; 44.2 µM in the experiment with CCRF-CEM leukemia; 49.9 µM with NCI-H460 lung. The TGI in the experiment on SNB-19 CNS was 56 µM; with RPMI-8226 leukemia, 33.6 µM.

Regarding `COc1ccc(/C=C/C(=O)C(=O)/C=C/c2ccc(OC)c(OC)c2)cc1OC`, the GI50 with UO-31 renal was 1.63 µM; in the experiment with HT29 colon, 0.763 µM; in the experiment with SF-268 CNS, 2.53 µM; in the experiment with NCI-H23 lung, 2.99 µM; in the experiment on SF-539 CNS, 2.13 µM; with CCRF-CEM leukemia, 2.22 µM. The GI50 was 3.06 µM in the experiment on NCI-H460 lung, 3.11 µM in the experiment on SNB-19 CNS and 0.389 µM in the experiment on RPMI-8226 leukemia. Also, the TGI in the experiment with UO-31 renal was 3.41 µM; in the experiment with HT29 colon, 2.62 µM; in the experiment with SF-268 CNS, 8.58 µM; with NCI-H23 lung it was above 100 µM; in the experiment with SF-539 CNS, 5.16 µM; in the experiment on CCRF-CEM leukemia it was 20 µM. Also, the figures for the TGI in the experiment with NCI-H460 lung, in the experiment on SNB-19 CNS and in the experiment with RPMI-8226 leukemia were 11.2 µM, 23.3 µM and 2.33 µM, respectively.

`O=C(CCl)N1CCN(c2ccccn2)CC1`: the TGI stood at 36.3 µM in the experiment with UO-31 renal; 32.3 µM in the experiment with HT29 colon; 63.8 µM in the experiment with SF-268 CNS; 39.9 µM in the experiment on NCI-H23 lung; 45.7 µM with IGROV1 ovarian; 69.2 µM in the experiment with CCRF-CEM leukemia. Further, the TGI is 41.2 µM in the experiment on NCI-H460 lung, above 100 µM in the experiment on SNB-19 CNS and above 100 µM with RPMI-8226 leukemia.

`CC[C@@]1(O)C(=O)OCc2c1cc1n(c2=O)Cc2cc3cc(O)ccc3nc2-1`: the GI50 in the experiment on UO-31 renal is 0.0311 µM and 0.0195 µM; in the experiment on HT29 colon, 0.16 µM and 0.167 µM; with SF-268 CNS it was 0.0192 µM; in the experiment with IGROV1 ovarian it was 0.238 µM; with NCI-H460 lung it was 0.0172 µM and < 0.0104 µM; in the experiment on SNB-19 CNS, 0.00946 µM. Also, the GI50 in the experiment on RPMI-8226 leukemia was 0.139 µM and 0.277 µM. Further, the TGI is 0.204 µM and 0.135 µM with UO-31 renal; 18.4 µM with HT29 colon; 0.109 µM and 0.0424 µM with NCI-H23 lung; 0.0495 µM and 0.0166 µM in the experiment with SF-539 CNS; 22.8 µM and 2.67 µM in the experiment on IGROV1 ovarian; 0.112 µM and 1.07 µM with NCI-H460 lung. The TGI with SNB-19 CNS is 75 µM and > 23.4 µM; with RPMI-8226 leukemia, 6.03 µM and 4.87 µM.

Take `O=C1C=C(Nc2cc(Cl)ccc2Cl)c2ccccc2C1=O`: the TGI in the experiment with UO-31 renal is above 100 µM; in the experiment on HT29 colon, above 100 µM; in the experiment with SF-268 CNS, above 100 µM; with NCI-H23 lung it was 39.3 µM; with SF-539 CNS, above 100 µM; in the experiment with IGROV1 ovarian, above 100 µM. Besides, the TGI in the experiment with NCI-H460 lung was 88.9 µM; in the experiment with SNB-19 CNS, above 100 µM; in the experiment on RPMI-8226 leukemia, 68 µM.

Consider `NC(N)=NCCCC(Nc1c2ccccc2nc2ccccc12)C(=O)O` (stereo not given), for which the TGI in the experiment with HT29 colon, in the experiment on SF-268 CNS, in the experiment on NCI-H23 lung, with SF-539 CNS, in the experiment on CCRF-CEM leukemia and with NCI-H460 lung was above 100 µM throughout. The TGI in the experiment with RPMI-8226 leukemia was above 100 µM.

Regarding `CC1(C)CCC2(C(=O)O)C(O)CC3(C)C(=CCC4C5(C)CCC(OC6OCC(O)C(O)C6OC6OCC(O)C(O)C6OC6OCC(O)C(OC7OC(CO)C(O)C(O)C7O)C6O)C(C)(C)C5CCC43C)C2C1` (stereo not given), the TGI with UO-31 renal is 35.3 µM; in the experiment with HT29 colon, above 100 µM; in the experiment on SF-268 CNS it was 64 µM; in the experiment with NCI-H23 lung, 49.7 µM; with SF-539 CNS, above 100 µM; with IGROV1 ovarian it was above 100 µM. Further, the TGI with CCRF-CEM leukemia is 71.9 µM; in the experiment with NCI-H460 lung it was above 100 µM; with SNB-19 CNS, 43.6 µM.

Take `CCN(CC)Cc1cc(Nc2ccnc3ccc(OC)cc23)ccc1O`: the GI50 in the experiment with UO-31 renal is 1.84 µM; with HT29 colon, 1.81 µM; with SF-268 CNS it was 3.61 µM; in the experiment with NCI-H23 lung, 7.46 µM; with SF-539 CNS, 2.17 µM; in the experiment on NCI-H460 lung it was 3.28 µM. Further, the GI50 in the experiment on SNB-19 CNS was 8.4 µM; in the experiment on RPMI-8226 leukemia it was 3.97 µM. Also, the TGI was found to be 5.96 µM in the experiment on UO-31 renal; 4.45 µM with HT29 colon; 19.8 µM in the experiment on SF-268 CNS; 26.5 µM with NCI-H23 lung; 4.84 µM in the experiment with SF-539 CNS; 10.4 µM in the experiment on NCI-H460 lung. In addition, the figures for the TGI in the experiment on SNB-19 CNS and in the experiment with RPMI-8226 leukemia were above 100 µM and 15.1 µM, respectively.
